{"source": "patent US9034303B2", "about": "“Neuroprotective and neuro-restorative iron chelators and monoamine oxidase inhibitors and uses thereof” (priority 2010, dated 2015)", "key": {"[1]": {"conditions": "prior publications; cited from earlier work"}, "[2]": {"system": "6-OHDA-induced lesions of nigrostrial dopamine neurons", "conditions": "prior publications; cited from earlier work"}, "[3]": {"assay": "Follow-up stability experiment at 37° C. in PBS", "assay_type": "physicochemical", "description": "(§1) Using high pressure liquid chromatography (HPLC), the stability of each of the tested compounds was determined by following its respective chemical character over time in either phosphate buffered saline (PBS) and/or 0.85% saline solution (sodium chloride). In each case, 0.5 mM of the tested compound in PBS or saline solution was incubated at 25° C. or at 37° C. for 20 hours or, in some cases, up to two days (48 hours).\nIn addition, in a follow-up experiment the instability of M30, and the stability of compounds 3, 7 and 8 was also confirmed at 37° C. in PBS, Table 2, below."}, "[4]": {"assay": "Cytotoxicity experiments conducted in the past with M30, SHSY-5Y", "assay_type": "cell-based, human", "conditions": "human, SH-SY5Y cells; experiments conducted in the past, methods not identical; read-out: LC50 (μM) SHSY-5Y", "excerpt": "(§2) Moreover, the outcomes of the cytotoxicity experiments compare very favorably with those conducted in the past with M30."}, "[5]": {"system": "SHSY-5Y", "assay": "Cytotoxicity experiments conducted in the past with M30, SHSY-5Y", "assay_type": "cell-based, human", "conditions": "past experiments", "excerpt": "as §2"}, "[6]": {"assay": "Cytotoxicity experiments conducted in the past with M30, HepG2", "assay_type": "cell-based", "conditions": "human, HepG2 cells, methods not identical, read-out: LC50 (μM) HepG2", "excerpt": "as §2"}, "[7]": {"assay": "Cytotoxicity experiments conducted in the past with M30, A549", "assay_type": "cell-based", "conditions": "human, A549 cells, methods not identical, read-out: LC50 (μM) A549", "excerpt": "as §2"}, "[8]": {"target": "MAO-B (Mus musculus (Mouse), UniProt Q8BW75)", "sequence (Q8BW75 whole entry)": "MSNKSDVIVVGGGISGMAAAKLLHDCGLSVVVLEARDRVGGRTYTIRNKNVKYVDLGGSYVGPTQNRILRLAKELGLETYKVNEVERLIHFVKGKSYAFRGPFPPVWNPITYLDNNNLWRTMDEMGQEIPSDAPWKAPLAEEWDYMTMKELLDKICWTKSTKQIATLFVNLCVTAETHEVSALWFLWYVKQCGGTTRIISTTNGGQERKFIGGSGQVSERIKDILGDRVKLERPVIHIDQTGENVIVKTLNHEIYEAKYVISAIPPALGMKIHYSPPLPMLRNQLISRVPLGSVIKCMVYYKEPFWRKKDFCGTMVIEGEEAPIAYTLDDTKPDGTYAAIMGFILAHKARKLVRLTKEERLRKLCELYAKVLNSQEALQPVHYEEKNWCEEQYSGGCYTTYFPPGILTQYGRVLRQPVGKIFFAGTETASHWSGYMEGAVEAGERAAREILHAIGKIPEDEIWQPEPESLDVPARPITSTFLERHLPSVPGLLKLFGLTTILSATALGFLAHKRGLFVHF", "assay": "In vivo MAO-B inhibition in mice after a single i.p. injection", "conditions": "small intestine, one hour later", "description": "(§3) For the MAO-inhibition study, mice (6 mice in each group) were injected intraperitoneally (i.p.) with compound 3 at the dosage of 5 or 10 mg/kg; or with M30 at the dosage of 10 mg/kg. Control mice received saline (0.1 mL) i.p. One hour later the mice were killed by cervical dislocation, while striatum and small intestine were removed rapidly and frozen in liquid nitrogen for further analysis. FIGS. 3 and 4 show MAO-A/MAO-B in vivo activity of compound 3 compared to the activity of M30. FIG. 3 presents an MAO inhibition in striatum, and FIG. 4 presents an MAO inhibition in intestine. The percent inhibition was computed based on comparison to control animals."}, "[9]": {"assay": "Stability in aqueous solution (PBS or saline) followed by HPLC", "assay_type": "physicochemical", "conditions": "for Amount of compound remaining (%): 25° C., 0.5 mM", "description": "as §1"}, "[10]": {"target": "MAO-A (Mus musculus (Mouse), UniProt Q64133)", "sequence (Q64133 whole entry)": "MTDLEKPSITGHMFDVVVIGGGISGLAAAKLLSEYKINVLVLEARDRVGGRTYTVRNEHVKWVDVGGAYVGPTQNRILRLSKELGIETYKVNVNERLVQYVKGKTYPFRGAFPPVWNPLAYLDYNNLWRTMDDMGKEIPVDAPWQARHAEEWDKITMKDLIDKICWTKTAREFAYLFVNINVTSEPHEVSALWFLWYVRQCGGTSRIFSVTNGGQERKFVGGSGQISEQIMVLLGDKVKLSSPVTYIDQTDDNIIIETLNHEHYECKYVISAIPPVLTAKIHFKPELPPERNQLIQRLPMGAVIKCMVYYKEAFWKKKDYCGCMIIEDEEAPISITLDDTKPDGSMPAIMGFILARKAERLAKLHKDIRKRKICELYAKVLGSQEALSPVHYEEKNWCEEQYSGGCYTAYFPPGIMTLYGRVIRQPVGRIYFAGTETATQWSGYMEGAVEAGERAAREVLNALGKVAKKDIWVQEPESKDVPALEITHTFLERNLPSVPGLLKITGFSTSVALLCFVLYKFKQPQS", "assay_type": "in vivo, mice", "conditions": "mice, single i.p. injection, small intestine, one hour later", "description": "as §3"}, "[11]": {"assay": "in vitro", "conditions": "human", "description": "The cytotoxicity of compound 3 was assessed in vitro using two standard cell lines, HepG2, derived from a human hepatocellular carcinoma, and SH-SY5Y, derived from a human neuroblastoma, both in the presence and absence of excess iron.\nHepG2 cells were maintained at ˜5% CO2, 37° C., and 95% relative humidity in minimal essential media (MEM) supplemented with 10% fetal bovine serum plus 0.1 mM non-essential amino acids, 2 mM L-glutamine, and penicillin/streptomycin. SH-SY5Y cells were maintained at ˜5% CO2, 37° C., and 95% relative humidity in a mixture of minimal essential media (MEM) and F12 K media (1:1, v:v) supplemented with 10% fetal bovine serum plus 0.1 mM non-essential amino acids, 2 mM L-glutamine, and penicillin/streptomycin. The cells were subcultured every two to three days and plated in tissue culture treated opaque white 96-well plates at a density of 1×10^4 cells/well and incubated at ˜5% CO2, 37° C., and 95% relative humidity overnight prior to initiation of the assay.\nA series of DMSO stocks of the test article at 100× of the final concentration were diluted 1:100 with fresh culture media (final DMSO concentration was 1%). The media from the plated cells was removed and replaced with 100 μL of media containing test article or tamoxifen with final concentrations ranging between 0.01 to 1000 μM in triplicate. Wells containing no cells were used as background controls. Tamoxifen was used as a known positive control and DMSO alone was used as a vehicle control. The cells were incubated for four hours at ˜5% CO2, 37° C., and 95% relative humidity.\nCell viability was determined using a commercially available kit to determine ATP levels by luminescence. Briefly, the buffer and lyophilized substrate from the kit were equilibrated to room temperature. The buffer was used to reconstitute the substrate just prior to addition to the wells of the cell plate (100 μL per well). The plate was placed into the Tecan Infinite M200 plate reader, agitated for 10 minutes followed by a 10 minute wait period, then read using an integration time of 0.5 seconds with no attenuation.\nThe mean luminescence from the test article treated cells was compared to that treated by DMSO only."}}, "note": "“Also recorded” adds a separate entry of the source.", "data": [{"compound": "OCCN1CCN(Cc2ccc(O)c3ncccc23)CC1", "note": "[5-[4-(2-hydroxyethyl)piperazin-1-ylmethyl]-8-hydroxyquinoline]", "values": [{"measurement": "Crossing of the BBB", "setting": "[1]", "value": "able to cross the BBB"}, {"measurement": "Activity against 6-OHDA in an animal model of Parkinson's disease", "setting": "[2]", "value": "active against 6-hydroxydopamine (6-OHDA)"}]}, {"compound": "C#CCN(C)Cc1ccc(O)c2ncccc12", "note": "[Compound M30, 5-[(methyl-2-propyn-1-ylamino)methyl]-8-quinolinol, reference compound]", "values": [{"measurement": "Stability at 37° C. in PBS (in words)", "setting": "[3]", "value": "instability"}, {"measurement": "Amount of compound remaining (%)", "setting": "[3]; 0.5 hours", "value": 50.8, "unit": "%"}, {"measurement": "Amount of compound remaining (%)", "setting": "[3]; 1 hour", "value": 54.9, "unit": "%"}, {"measurement": "Amount of compound remaining (%)", "setting": "[3]; 2 hours", "value": 45.1, "unit": "%"}, {"measurement": "Amount of compound remaining (%)", "setting": "[3]; 4 hours", "value": 24.3, "unit": "%"}, {"measurement": "Amount of compound remaining (%)", "setting": "[3]; 8 hours", "value": 14.4, "unit": "%"}, {"measurement": "Amount of compound remaining (%)", "setting": "[3]; 24 hours", "value": 4.26, "unit": "%"}, {"measurement": "CC50", "setting": "[4]", "value": "> 1000", "unit": "µM"}, {"measurement": "SHSY-5Y cell death (%)", "setting": "[5]; with iron, M30 1 μM", "value": 0.69, "unit": "%"}, {"measurement": "SHSY-5Y cell death (%)", "setting": "[5]; with iron, M30 10 μM", "value": 78.6, "unit": "%"}, {"measurement": "SHSY-5Y cell death (%)", "setting": "[5]; with iron, M30 100 μM", "value": 38.5, "unit": "%"}, {"measurement": "SHSY-5Y cell death (%)", "setting": "[5]; without iron, M30 1 μM", "value": "−2.", "unit": "%"}, {"measurement": "SHSY-5Y cell death (%)", "setting": "[5]; without iron, M30 10 μM", "value": 1.0, "unit": "%"}, {"measurement": "SHSY-5Y cell death (%)", "setting": "[5]; without iron, M30 100 μM", "value": "19.", "unit": "%"}, {"measurement": "CC50", "setting": "[6]", "value": 842, "unit": "µM"}, {"measurement": "Crossing of the BBB", "setting": "[1]", "value": "able to cross the BBB"}, {"measurement": "CC50", "setting": "[7]", "value": "> 1000", "unit": "µM"}, {"measurement": "MAO-B inhibition in intestine", "setting": "[8]", "value": "Reduced inhibition in the intestinal tissue versus striatal tissue"}, {"measurement": "Stability in aqueous solution (in words)", "setting": "[9]; PBS and/or saline solution", "value": "unstable in aqueous solution; also recorded: degraded in both PBS and saline solution"}, {"measurement": "Amount of compound remaining (%)", "setting": "[9]; PBS, 0.5 hours", "value": 76, "unit": "%"}, {"measurement": "Amount of compound remaining (%)", "setting": "[9]; PBS, 2 hours", "value": 57, "unit": "%"}, {"measurement": "Amount of compound remaining (%)", "setting": "[9]; PBS, 20 hours", "value": 28, "unit": "%"}, {"measurement": "Amount of compound remaining (%)", "setting": "[9]; PBS, 48 hours", "value": 15, "unit": "%"}, {"measurement": "Amount of compound remaining (%)", "setting": "[9]; saline, 0.5 hours", "value": 98, "unit": "%"}, {"measurement": "Amount of compound remaining (%)", "setting": "[9]; saline, 2 hours", "value": 85, "unit": "%"}, {"measurement": "Amount of compound remaining (%)", "setting": "[9]; saline, 20 hours", "value": 22, "unit": "%"}, {"measurement": "Activity against 6-OHDA in an animal model of Parkinson's disease", "setting": "[2]", "value": "active against 6-hydroxydopamine (6-OHDA)"}, {"measurement": "MAO-A inhibition in intestine", "setting": "[10]", "value": "Reduced inhibition in the intestinal tissue versus striatal tissue"}]}, {"compound": "CC(=O)N(O)CCCCCNC(=O)CCC(=O)N(O)CCCCCNC(=O)CCC(=O)N(O)CCCCCN", "note": "[Desferal]", "values": [{"measurement": "Crossing of the BBB", "setting": "[1]", "value": "does not cross the BBB"}, {"measurement": "Activity against 6-OHDA in an animal model of Parkinson's disease", "setting": "[2]", "value": "protected the rats against 6-OHDA-induced lesions"}]}, {"compound": "CC/C(=C(\\c1ccccc1)c1ccc(OCCN(C)C)cc1)c1ccccc1", "note": "[tamoxifen, reference compound]", "values": [{"measurement": "CC50 at 4 h", "setting": "[11]", "value": "~50", "unit": "µM"}, {"measurement": "CC50 at 4 h", "setting": "[11]; LC50 (μM) SHSY-5Y", "value": "~50", "unit": "µM"}]}]}
